Entries after “also recorded” stand apart in the source; their conditions may differ.
Columns and labels:
Format in all cases: cell-based
New born mouse skin = assay: Hair shaft growth in new born mouse skin micro-organ cultures; settings: skin from 30 hr-old mouse, 3 days in culture, 1 ng/ml EGF
Description: New born mouse skin was obtained after surgery, cleaned of underlying fat tissue and cut into 0.4×5 cm flaps, which were then transversely sectioned, using a tissue chopper or other suitable cutting devise into 300 μm sections. The micro-organs were placed in microplates in DMEM in the absence of serum under 5% CO2 at 37° C. under constant shaking for periods of 1 to 14 days. Certain of the micro-organ explants were contacted with a growth factor, e.g., FGF, which was added to the culture media. The medium was changed every 2 days.
New born “hairless” skin can be induced to produce hair shafts when grown in MC cultures.

epidermal cells = assay: Inhibition of proliferation of epidermal cells
guinea-pig skin cultures = assay: BrdU labeling assay of cell proliferation (DNA synthesis) in skin micro-organ cultures; settings: FIG. 12
Description: Fresh skin was obtained after surgery, cleaned from underlying fat tissue and cut into 0.4×5 cm flaps, which are then transversely sectioned, using a tissue chopper or other suitable cutting means into 300 μm sections under sterile conditions so that the final tissue segments had dimensions of 4 mm in width and 0.3 mm in thickness (see FIG. 1). These micrograns were placed in a 24-well microplate in 400 μl of DMEM in the absence of serum under 5% CO2 at 37° C., under constant shaking at 12 rpm for periods of one to eight days. Twenty micro-explants were grown per well.
Micro-organ cultures were prepared according to Example I and proliferation of the cells was measured by analyzing the amount of DNA synthesis as follows. […]
The cultures were prepared and maintained in defined medium in similar growth conditions as described in Example I. Control samples were analyzed by immunocytochemistry to determine that the micro-organ culture was maintained in a manner that was similar to that occurring in vivo.
Duplicated samples of skin micro-cultures were treated with TGF-β at 2.5 ng/ml. A quantitative analysis of the number of BrdU labeled cells/explant was performed according to Example II.

For “EGF: epidermal growth factor added to culture medium (NSDSECPLSHDGYCLHDGVCMYIEALDKYACNCVVGYIGERCQYRDLKWWELR; UniProt P01133 971-1023, looked up)”, the “hair shaft development in explants” value (New born mouse skin) was “development of hair shafts in the explants”.
For Activin, the “effect on proliferation of epidermal cells” value (epidermal cells) was “inhibit proliferation of epidermal cells”.
With TGF-β the “effect on cell proliferation / mitogenesis in skin micro-organ cultures” value (guinea-pig skin cultures; 2.5 ng/ml, guinea-pig skin cultures) was “inhibitor of cell proliferation; also recorded: inhibition of mitogenesis” and the “inhibition of DNA synthesis (number of BrdU labeled cells/explant) compared with controls” value (guinea-pig skin cultures; TGF-β at 2.5 ng/ml, skin micro-cultures in defined medium) was “Greater than 90%”.

Source: patent publication US20030152562A1, “Vitro micro-organs, and uses related thereto” (Yissum Research Development Company of the Hebrew …, priority 2001, published 2003)
